Reference: article PMC4774911, “Biochemical Screening of Five Protein Kinases from Plasmodium falciparum against 14,000 Cell-Active Compounds” (PLoS ONE, 2016)
Several values for one entry are separate records, joined by “and”; a condition that tells them apart may be missing. Identical values can stand only once.

Key:
Experiment in all cases: biochemical
Set-up in all cases: endogenous in cells; host or cells: K562 cell extract; species or system K562 (extract); replicate k of n = 2 (each experiment ID is one independent experiment; two experiment IDs per compound)
Settings in all cases: read-out: KDapp
GSK3B = GSK3B (Homo sapiens, UniProt P49841)
MERTK = target: T1, MERTK (Homo sapiens, UniProt Q12866)
T1 sequence (Q12866 1-999): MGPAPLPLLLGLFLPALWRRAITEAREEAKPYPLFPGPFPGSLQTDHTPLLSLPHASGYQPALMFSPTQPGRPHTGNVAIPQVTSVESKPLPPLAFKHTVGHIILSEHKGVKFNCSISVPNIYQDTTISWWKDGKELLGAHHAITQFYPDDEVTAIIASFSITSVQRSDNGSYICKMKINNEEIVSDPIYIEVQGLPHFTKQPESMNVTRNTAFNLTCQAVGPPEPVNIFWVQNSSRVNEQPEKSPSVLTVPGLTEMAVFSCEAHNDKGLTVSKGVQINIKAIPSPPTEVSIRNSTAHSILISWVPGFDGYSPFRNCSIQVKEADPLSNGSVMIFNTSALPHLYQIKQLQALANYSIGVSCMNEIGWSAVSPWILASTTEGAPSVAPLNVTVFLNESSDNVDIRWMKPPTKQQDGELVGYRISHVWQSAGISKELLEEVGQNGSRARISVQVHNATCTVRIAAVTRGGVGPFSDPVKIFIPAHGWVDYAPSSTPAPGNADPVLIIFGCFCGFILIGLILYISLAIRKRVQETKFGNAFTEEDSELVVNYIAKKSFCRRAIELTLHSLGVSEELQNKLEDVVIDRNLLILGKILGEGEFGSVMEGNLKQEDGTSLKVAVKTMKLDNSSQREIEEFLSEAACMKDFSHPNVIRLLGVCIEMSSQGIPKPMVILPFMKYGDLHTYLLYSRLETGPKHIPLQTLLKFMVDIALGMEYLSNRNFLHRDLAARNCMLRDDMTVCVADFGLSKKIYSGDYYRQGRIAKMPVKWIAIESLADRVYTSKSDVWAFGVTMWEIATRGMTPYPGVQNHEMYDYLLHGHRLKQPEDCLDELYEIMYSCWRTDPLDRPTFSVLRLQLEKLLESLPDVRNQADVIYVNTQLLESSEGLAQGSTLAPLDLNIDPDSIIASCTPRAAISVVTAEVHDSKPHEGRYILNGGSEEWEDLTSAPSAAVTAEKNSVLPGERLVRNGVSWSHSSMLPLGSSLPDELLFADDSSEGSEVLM

PIP5K3 = PIP5K3 (Homo sapiens, UniProt Q9Y2I7)
PRKD2 = target: T2, PRKD2 (Homo sapiens, UniProt Q9BZL6)
T2 sequence (Q9BZL6 1-878): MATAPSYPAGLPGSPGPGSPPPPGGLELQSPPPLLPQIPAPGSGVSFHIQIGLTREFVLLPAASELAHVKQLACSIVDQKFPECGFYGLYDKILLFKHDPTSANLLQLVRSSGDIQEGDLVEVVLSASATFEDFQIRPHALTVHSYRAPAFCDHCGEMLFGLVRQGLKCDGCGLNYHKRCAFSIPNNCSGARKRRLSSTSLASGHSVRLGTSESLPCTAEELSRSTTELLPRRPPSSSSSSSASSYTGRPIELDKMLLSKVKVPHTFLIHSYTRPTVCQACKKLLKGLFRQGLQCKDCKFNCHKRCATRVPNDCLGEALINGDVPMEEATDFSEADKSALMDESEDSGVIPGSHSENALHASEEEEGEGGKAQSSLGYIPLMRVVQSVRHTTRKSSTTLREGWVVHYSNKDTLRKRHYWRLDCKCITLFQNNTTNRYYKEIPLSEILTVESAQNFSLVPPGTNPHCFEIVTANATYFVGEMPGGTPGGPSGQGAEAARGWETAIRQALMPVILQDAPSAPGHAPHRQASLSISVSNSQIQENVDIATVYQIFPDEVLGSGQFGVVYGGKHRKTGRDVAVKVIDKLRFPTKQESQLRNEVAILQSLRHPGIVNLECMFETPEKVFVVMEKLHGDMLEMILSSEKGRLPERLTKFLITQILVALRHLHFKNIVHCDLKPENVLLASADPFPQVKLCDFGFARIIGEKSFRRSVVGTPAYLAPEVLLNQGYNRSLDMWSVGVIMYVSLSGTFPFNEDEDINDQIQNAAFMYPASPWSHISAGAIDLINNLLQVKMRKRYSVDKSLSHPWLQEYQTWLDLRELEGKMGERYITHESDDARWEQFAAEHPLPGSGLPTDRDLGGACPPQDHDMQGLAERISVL

STK10 = STK10 (Homo sapiens, UniProt O94804)
TNIK = TNIK (Homo sapiens, UniProt Q9UKE5)
TNIK, sequence (Q9UKE5 whole entry): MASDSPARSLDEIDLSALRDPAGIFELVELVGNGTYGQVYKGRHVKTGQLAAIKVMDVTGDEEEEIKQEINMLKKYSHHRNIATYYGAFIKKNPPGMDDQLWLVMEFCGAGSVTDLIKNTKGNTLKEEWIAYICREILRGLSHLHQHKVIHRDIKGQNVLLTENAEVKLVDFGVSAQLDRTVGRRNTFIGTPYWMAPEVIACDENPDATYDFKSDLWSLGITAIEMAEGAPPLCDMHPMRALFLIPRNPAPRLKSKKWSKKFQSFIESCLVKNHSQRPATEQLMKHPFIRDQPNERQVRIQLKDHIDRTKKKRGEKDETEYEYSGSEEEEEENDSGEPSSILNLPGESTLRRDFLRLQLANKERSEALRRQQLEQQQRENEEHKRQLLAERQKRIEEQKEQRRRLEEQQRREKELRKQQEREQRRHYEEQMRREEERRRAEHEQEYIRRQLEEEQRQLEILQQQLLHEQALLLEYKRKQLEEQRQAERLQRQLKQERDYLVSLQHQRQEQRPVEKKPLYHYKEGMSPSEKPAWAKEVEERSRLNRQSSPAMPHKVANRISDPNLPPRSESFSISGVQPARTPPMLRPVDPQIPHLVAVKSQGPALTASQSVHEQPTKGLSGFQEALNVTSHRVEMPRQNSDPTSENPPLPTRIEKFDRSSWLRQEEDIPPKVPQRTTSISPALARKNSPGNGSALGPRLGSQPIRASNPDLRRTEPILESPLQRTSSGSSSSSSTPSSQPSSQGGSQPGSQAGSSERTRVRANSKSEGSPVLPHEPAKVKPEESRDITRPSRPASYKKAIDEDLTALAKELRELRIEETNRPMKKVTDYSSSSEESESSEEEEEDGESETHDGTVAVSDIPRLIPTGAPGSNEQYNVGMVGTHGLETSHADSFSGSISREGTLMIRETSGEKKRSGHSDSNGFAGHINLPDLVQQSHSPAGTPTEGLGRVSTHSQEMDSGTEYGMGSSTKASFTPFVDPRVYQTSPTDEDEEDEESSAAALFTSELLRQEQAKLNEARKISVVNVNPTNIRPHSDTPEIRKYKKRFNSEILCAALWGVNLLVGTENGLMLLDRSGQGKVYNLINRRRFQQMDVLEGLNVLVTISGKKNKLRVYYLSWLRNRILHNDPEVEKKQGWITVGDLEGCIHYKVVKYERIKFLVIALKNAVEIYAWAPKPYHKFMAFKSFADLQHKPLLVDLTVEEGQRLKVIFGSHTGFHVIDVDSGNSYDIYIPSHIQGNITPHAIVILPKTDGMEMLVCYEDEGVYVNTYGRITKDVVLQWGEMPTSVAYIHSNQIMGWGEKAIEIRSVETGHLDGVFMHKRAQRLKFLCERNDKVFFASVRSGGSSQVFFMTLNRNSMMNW

GSK3B, sequence (P49841 whole entry): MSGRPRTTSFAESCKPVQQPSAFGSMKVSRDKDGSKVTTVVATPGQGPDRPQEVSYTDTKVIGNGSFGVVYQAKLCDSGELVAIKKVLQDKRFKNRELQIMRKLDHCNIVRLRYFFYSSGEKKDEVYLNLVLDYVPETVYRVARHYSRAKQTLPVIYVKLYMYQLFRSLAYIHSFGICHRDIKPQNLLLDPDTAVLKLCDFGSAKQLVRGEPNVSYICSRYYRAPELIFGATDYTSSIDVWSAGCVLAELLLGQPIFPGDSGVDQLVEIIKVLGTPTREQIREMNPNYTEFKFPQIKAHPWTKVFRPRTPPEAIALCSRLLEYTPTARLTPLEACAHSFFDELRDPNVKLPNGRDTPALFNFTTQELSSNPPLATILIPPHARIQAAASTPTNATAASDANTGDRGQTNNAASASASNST
STK10, sequence (O94804 whole entry): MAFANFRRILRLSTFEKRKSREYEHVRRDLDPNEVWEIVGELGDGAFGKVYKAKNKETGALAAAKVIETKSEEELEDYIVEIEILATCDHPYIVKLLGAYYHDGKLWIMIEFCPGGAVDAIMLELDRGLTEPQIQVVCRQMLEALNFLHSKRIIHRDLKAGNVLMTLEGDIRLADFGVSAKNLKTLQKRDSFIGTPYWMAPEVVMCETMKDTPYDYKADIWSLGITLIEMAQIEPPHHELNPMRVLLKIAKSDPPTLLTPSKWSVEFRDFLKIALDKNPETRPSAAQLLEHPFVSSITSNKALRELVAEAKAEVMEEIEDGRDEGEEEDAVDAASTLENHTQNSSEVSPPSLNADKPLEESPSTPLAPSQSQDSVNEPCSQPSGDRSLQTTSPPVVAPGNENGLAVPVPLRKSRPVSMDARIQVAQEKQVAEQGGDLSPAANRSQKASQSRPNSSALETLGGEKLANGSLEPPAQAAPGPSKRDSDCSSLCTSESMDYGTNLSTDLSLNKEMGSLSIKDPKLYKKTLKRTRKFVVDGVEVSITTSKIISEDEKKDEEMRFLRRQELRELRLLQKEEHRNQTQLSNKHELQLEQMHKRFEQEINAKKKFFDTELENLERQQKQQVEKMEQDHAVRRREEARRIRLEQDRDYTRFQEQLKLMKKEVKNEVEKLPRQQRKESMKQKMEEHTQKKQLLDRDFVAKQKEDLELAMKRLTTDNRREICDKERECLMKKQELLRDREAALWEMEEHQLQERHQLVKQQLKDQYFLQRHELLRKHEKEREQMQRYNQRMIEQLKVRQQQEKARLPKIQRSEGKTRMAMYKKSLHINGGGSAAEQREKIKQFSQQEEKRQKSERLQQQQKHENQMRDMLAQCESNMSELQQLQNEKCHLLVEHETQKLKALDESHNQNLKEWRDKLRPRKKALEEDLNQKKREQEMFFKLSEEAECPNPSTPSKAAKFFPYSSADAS
PIP5K3, sequence (Q9Y2I7 whole entry): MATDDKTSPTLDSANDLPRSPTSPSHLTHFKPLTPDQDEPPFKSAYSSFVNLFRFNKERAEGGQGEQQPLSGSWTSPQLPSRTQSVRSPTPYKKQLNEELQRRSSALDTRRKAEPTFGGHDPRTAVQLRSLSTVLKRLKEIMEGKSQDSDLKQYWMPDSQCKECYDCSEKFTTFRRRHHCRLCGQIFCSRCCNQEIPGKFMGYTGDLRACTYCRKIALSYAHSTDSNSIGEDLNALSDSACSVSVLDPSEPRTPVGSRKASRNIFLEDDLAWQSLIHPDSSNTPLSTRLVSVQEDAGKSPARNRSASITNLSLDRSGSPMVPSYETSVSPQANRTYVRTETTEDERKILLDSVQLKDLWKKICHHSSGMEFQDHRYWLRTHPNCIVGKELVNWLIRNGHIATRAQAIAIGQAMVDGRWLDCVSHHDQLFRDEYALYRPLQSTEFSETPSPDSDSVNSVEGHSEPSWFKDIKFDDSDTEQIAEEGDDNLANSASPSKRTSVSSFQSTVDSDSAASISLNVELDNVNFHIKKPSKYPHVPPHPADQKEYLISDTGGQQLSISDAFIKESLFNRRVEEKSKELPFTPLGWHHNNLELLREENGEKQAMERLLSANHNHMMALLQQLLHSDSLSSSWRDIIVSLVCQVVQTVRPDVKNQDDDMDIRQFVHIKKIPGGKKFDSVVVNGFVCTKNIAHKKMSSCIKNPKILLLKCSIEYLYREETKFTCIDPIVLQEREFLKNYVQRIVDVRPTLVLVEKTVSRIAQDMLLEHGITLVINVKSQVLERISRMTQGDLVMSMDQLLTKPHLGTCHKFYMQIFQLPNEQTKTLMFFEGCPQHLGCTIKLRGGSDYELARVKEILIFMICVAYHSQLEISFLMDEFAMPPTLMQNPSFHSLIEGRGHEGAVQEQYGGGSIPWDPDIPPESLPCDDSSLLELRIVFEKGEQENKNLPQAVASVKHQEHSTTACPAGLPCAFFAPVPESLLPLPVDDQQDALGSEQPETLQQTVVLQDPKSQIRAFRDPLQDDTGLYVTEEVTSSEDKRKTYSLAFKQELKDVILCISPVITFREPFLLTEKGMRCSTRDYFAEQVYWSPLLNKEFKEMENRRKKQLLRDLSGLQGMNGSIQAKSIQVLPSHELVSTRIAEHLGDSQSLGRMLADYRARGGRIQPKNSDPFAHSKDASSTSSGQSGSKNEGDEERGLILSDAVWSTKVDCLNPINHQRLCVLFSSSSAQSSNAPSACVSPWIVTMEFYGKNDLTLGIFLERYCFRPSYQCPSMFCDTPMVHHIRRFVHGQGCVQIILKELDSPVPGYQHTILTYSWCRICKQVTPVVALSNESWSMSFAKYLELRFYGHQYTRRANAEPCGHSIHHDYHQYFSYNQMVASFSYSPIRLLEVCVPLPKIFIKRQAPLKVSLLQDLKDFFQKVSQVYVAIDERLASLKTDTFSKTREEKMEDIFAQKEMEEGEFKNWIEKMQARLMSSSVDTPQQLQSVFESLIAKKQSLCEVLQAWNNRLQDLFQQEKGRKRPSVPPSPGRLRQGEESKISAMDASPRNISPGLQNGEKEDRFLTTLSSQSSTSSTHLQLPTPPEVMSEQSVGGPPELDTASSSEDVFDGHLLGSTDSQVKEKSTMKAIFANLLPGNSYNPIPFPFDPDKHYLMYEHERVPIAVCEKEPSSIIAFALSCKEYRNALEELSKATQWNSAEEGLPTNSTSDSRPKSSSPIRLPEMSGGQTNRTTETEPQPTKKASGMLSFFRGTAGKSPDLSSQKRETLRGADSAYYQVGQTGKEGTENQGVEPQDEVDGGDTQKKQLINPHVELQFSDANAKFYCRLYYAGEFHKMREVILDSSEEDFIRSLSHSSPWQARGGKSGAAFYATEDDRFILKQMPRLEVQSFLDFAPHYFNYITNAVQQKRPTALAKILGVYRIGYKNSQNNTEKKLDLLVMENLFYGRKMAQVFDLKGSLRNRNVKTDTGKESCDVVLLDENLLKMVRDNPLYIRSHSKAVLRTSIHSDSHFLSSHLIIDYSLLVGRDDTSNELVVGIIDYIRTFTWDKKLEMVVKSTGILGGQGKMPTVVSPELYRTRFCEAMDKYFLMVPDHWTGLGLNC

Compound	Kd (GSK3B)	Kd (MERTK)	Kd (PIP5K3)	Kd (PRKD2)	Kd (STK10)	Kd (TNIK)
CN(C)CC(O)COc1ccc(Nc2ncc([N+](=O)[O-])c(Nc3ccccc3O)n2)cc1.O=C(O)C(F)(F)F (stereo not drawn) [TCMDC-141399]	3000 nM and 3930 nM	567 nM	3930 nM and 2770 nM	921 nM	3360 nM	378 nM
Cl.NCC1(c2nc(-c3ccc(Cl)c(O)c3)c(-c3ccncc3)[nH]2)CCCCC1 [TCMDC-141154]	2750 nM	4800 nM	524 nM	2520 nM and 2080 nM	30.4 nM	134 nM
CN1CCN(c2ccc(Nc3ncc(C#N)c(Nc4ccccc4C(N)=O)n3)cc2)CC1.Cl [TCMDC-134116]	857 nM and 535 nM	325 nM	681 nM and 785 nM	165 nM and 160 nM	25.6 nM and 49.6 nM	92.2 nM and 115 nM
